Test results from patent US12612403B2, “Nitrogen-containing heterocyclic derivative inhibitor, and preparation method therefor and use thereof” (SHANGHAI HANSOH BIOMEDICAL CO., LTD., priority 2024, dated 2026).

How the values were obtained:
[1] = tested on: PCSK9 secreted by HepG2 cells; experiment: Effect on the concentration of PCSK9 secreted by HepG2 cells (ELISA); assay type: cell-based; details: Homo sapiens, 48 hours, PCSK9 in culture medium by ELISA
Method: 1. Experimental objective: To detect the inhibitory effect of the compounds on PCSK9.
2. Experimental method: • 1) HepG2 cell strain was cultured in the complete culture medium at 37° C., 5% CO2 to 70-90% confluence. • 2) The cells were digested and resuspended in the experimental culture medium, inoculated at 25,000 cells/well/200 μL in a 96-well cell culture plate, and cultured at 37° C. and 5% CO2 for 20-24 hours. • 3) The culture medium was removed from the cell culture plate, and the cell culture plate was washed once by adding 200 ul of the experimental culture medium to each well. • 4) Preparation of positive control compound and compound to be tested: the positive control compound and the compound to be tested were diluted on the compound plate. • 5) The diluted compound was added to the cell culture plate at 250 μL per well and incubated at 37° C. and 5% CO2 for 48 hours. • 6) The cell culture medium was collected at 200 μL per well and cryopreserved at −80° C. for later use. • 7) A sample of the cell culture medium was taken from the −80° C. cryopreservation condition, dissolved, vortexed, and centrifuged for later use. • 8) Preparation of standard curve: corresponding volumes of Dilution buffer were successively added to respective standard tubes, and in the order of the concentrations of 10, 5, 2.5, 1.25, 0.625, 0.313, 0.16, 0 ng/mL, the standard was diluted in series by taking the corresponding volume from the original tube or the last concentration tube. • 9) Preparation of washing liquid: 10x Wash buffer was diluted into 1x with Milli-Q for later use. • 10) According to the standard curve wells and sample wells set according to a plate map, 100 μL/well of the corresponding standards and culture medium samples were added to the wells, with 2 replicate wells. A self-adhesive seal was applied, the plate was placed on a plate shaker at room temperature, gently shaken, uniformly mixed, and incubated for 1 hour. • 11) The plate was placed on the plate washer, the washing liquid was set to 350 μL per well, and the plate was washed 4 times repeatedly. • 12) 100 μL/well of an HRP-conjugated detection antibody was added, a self-adhesive seal was applied, and the plate was placed on the plate shaker, well mixed uniformly, and incubated for 1 hour. • 13) The plate was placed on the plate washer, the washing liquid was set to 350 μL per well, and the plate was washed 4 times repeatedly. • 14) 100 μL/well of Substrate reagent was added, and the plate was placed in the dark, applied with a self-adhesive seal, placed on the plate shaker, well mixed uniformly, and incubated for 10-20 minutes. • 15) 100 μL of Stop solution (1N H2SO4) was added to each well and mixed uniformly. • 16) The optical density (OD) value in each well was measured in sequence at a wavelength of 450 nm by the microplate reader. Detection was carried out within 30 min after the reaction was stopped.
3. Experimental data processing method: After the OD values were read by the microplate reader, the OD value of the 0-concentration standard in the standard group was subtracted from the OD values of the standards, control group, and samples to obtain the actual OD values for these wells. A standard curve was plotted with Graphpad and the concentration of the sample was calculated. If the dilution was performed during the sample detection, the calculated sample concentration was necessarily multiplied by the corresponding dilution ratio in the final calculation, which was the actual concentration of the sample. Inhibition rate=(actual concentration in control−actual concentration in sample)/actual concentration in control*100. According to the inhibition rates corresponding to the different concentrations, IC50 was derived by Graphpad.

[2] = Pharmacokinetic determination in mice (PO 5 mg/kg, IV 1 mg/kg); assay type: in vivo, C57BL/6J mice; details: male, C57BL/6J, mouse, plasma, C57 mice, PO administration, 5 mpk; for AUC(0-inf): read-out: Area under the curve AUC0-∞; for half-life: read-out: Half-life t1/2 (converted); for MRT: read-out: Mean residence time MRT; for Cmax: read-out: Plasma concentration Cmax; for Tmax: read-out: Time to peak tmax
Method: 1. Experimental objective: C57BL/6J mice were used as test animals to study the pharmacokinetic behavior of the compounds of the present disclosure in mice (plasma) after oral and intravenous administration.
2.2 Test animals: C57 mice, male, purchased from Shanghai Bk Lab Animal Co., Ltd., with animal production license number (SCXK (Shanghai) 2013-0006 N0.311620400001794).
2.3 Drug preparation: Preparation of oral drug: 10% Solutol HS15
10 g of Solutol HS15 solid was weighed, dissolved in 90 mL of pure water, uniformly mixed, stirred, and ultrasonically treated to form a clear solution. The compound of the present disclosure was weighed and dissolved in this solution, uniformly shaken, and ultrasonically treated for 15 minutes to obtain a colorless clear solution with a concentration of 0.5 mg/mL. Preparation of intravenous drug: 5% DMSO+10% Solutol HS15+85% PBS, the compound of the present disclosure was weighed, 5% DMSO was first added on the basis of the proportion relative to the total volume of administration, and the mixture was vortexed and ultrasonically treated for 2 min until it was completely dissolved; 10% of Solutol HS15 was then added, and the mixture was vortexed and ultrasonically treated for 2 min until it was completely dissolved; and finally, 85% of PBS was added, and the mixture was vortexed, ultrasonically treated for 5 min, and filtered through a 0.22 um filter membrane to obtain a colorless and transparent clear solution with a concentration of 0.2 mg/mL.
2.4 Administration: 3 male C57 mice were fasted overnight and then respectively administered PO at a dose of 5 mg/kg and a volume of 10 mL/kg. 3 male C57 mice were fasted overnight and then respectively administered IV at a dose of 1 mg/kg and a volume of 5 mL/kg.
2.5 Sample collection: Before and after administration of mice, 0.04 mL of blood was collected from the orbit at 0.083 (iv), 0.25, 0.5, 1, 2, 4, 8, and 24 hours, and placed in EDTA-K2 test tubes, which was centrifuged at 6000 rpm at 4° C. for 6 min to separate plasma which was stored at −80° C.; and the […] were fed 4 h after administration.
2.6 Determination results: The final determination results were obtained by using an LCMS/MS method.
3. Experimental results: The main pharmacokinetic parameters were calculated using WinNonlin 6.1.

PCSK9 protein = target: T1, PCSK9 protein (Homo sapiens, UniProt Q8NBP7); experiment: Binding ability to PCSK9 protein (HTRF); details: PCSK9-His, Alexa Fluor 647 probe compound
T1 construct: purchased Sino biology (Sino Biological) 29698-H08H
Method: 1. Experimental objective: To detect the action of compounds to bind PCSK9 protein by an HTRF method.
3. Experimental data processing method: Four-parameter log(inhibitor) vs. response—Variable slope (four parameters) in XLit was used to perform non-linear fitting of the compound concentration and the corresponding inhibition rate, and IC50 was calculated.

[3] = In vitro metabolic stability in human liver microsomes; assay type: in vitro ADME; details: pH 7.4
Method: 1. Experimental objective: The purpose of this experiment was to evaluate the metabolic stability of the compounds in phase I and partially phase II in mouse, rat and human liver microsomes, respectively.
2.1 Drug preparation: 10 mM stock solution of the compound of the present disclosure was prepared in DMSO (or other suitable solution) and stored in a −20° C. refrigerator for later use. The compound of the present disclosure was made in house.
2.2 Experimental steps • 1) Preparation of buffer: 4.01 mL of 1 M K2HPO4·3H2O (AR grade) and 0.99 mL of 1 M KH2PO4 (AR grade) were dissolved in ultrapure water and the volume was adjusted to 50 mL to prepare a phosphate buffer with a final concentration of 100 mM. • 2) Preparation of compound working solution: Preparation of compound working solution: 2 μL of the compound stock solution was added to 998 μL of phosphate buffer to a final concentration of 20 μM. According to the properties of the compound, the preparation proportions could be adjusted appropriately to adjust the final concentration. • 3) Preparation of liver microsome working solution: 156.3 μL of 20 mg/mL microsomes were diluted to 5 mL with 100 mM phosphate buffer, and the mixture was mixed well to reach a final concentration of 0.625 mg/mL. • 4) Preparation of NADPH and UDPGA: 33.3 mg of NADPH and 25.8 mg of UDPGA were weighed and added to 2 mL of 100 mM phosphate buffer to reach a final concentration of 20 mM. • 5) Preparation of pore-forming agent (Alamethicin): 1 mg of Alamethicin was weighed and added to 200 μL of methanol to prepare a 5 mg/mL solution. 10 μL of the solution was taken and added to 990 μL phosphate buffer (pH 7.4) to reach a final concentration of 50 μg/mL. • 6) Preparation of reaction stop solution: The internal standard was diluted with acetonitrile (or other suitable solution) to use as a stop solution and stored in a 2° C.-8° C. refrigerator. • 7) Incubation process: 400 μL of the prepared liver microsomes, 25 μL of the compound working solution (20 μM) and 25 μL of Alamethicin (50 μg/mL) were successively added to the 96-well plate, and the mixture was pre-incubated at 37° C. for 10 min. Then, 50 μL of prepared NADPH/UDPGA was added to start the reaction, and the mixture was incubated at 37° C. The total volume of the reaction system was 500 μL. The final contents of each component were as follows:
50 μL of samples were taken at 0, 5, 15, 30, 60 and 120 min, respectively, 200 μL of a cold stop solution containing the internal standard was added to stop the sample reaction, the mixture was centrifuged at 3500 rpm for 10 min, and the supernatant was taken and analyzed by LC-MS/MS.
Instruments: Shimadzu LC-20 AD; Chromatographic column: Phenomenex Gamin® C18 (50*4.6 mm, 5 μm particle size); mobile phase: A: 0.1% aqueous formic acid, B: acetonitrile; Elution gradient: 0.2-1.6 min, […], 3.0-3.1 min, 95% A to 5% A; Flow rate: 1.0 ml/min; Run time: 4.0 min; Injection volume: 5 μL.
Instruments: AP14000 liquid chromatography mass spectrometer, AB Sciex; Ion source: electrospray ionization source (ESI); Drying gas: N2, temperature 500° C.; Electrospray voltage: 5000 V; Detection mode: positive ion detection; Scanning mode: Reaction Monitoring (MRM) mode; Scanning time: 0.8401 s.
3. Data processing: The raw data were calculated according to the following formula: […]
The in vitro liver microsome intrinsic clearance rate (CLint) and liver intrinsic clearance rate (CLint,liver) were calculated by Ke.

T1 sequence (Q8NBP7 153-692): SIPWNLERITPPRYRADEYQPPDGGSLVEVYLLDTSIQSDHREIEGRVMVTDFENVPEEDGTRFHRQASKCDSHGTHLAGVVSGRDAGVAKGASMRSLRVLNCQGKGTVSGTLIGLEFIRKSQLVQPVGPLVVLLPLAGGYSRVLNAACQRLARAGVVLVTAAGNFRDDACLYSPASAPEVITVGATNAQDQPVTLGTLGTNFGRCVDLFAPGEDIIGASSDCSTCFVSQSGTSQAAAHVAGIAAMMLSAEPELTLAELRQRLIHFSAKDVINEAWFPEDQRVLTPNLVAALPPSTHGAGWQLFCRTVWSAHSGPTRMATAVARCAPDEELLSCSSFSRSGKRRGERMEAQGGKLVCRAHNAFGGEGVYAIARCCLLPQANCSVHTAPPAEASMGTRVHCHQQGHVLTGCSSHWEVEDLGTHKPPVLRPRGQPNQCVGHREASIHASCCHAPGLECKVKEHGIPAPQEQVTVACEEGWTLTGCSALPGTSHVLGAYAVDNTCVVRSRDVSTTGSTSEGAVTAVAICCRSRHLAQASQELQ

SMILES | IC50 [1] [nM] | AUC(0-inf) [2] [ng·h/mL] | half-life [2] [h] | MRT [2] [h] | Cmax [2] [ng/mL] | Tmax [2] [h] | IC50 (PCSK9 protein) [nM] | half-life at 1 µM [3] [h] | microsomal CLint at 1 µM [3] [µL/min/mg]
Cc1cc2c(cn1)C(=O)N(c1ccc(N[C@H]3CC[C@H](Nc4nc5cc(C(F)(F)F)ccn5n4)C3)nc1)C2 [Example 89, 6-methyl-2-(6-(((1S,3S)-3-((7-(trifluoromethyl)-[1,2,4]triazolo[1,5-a]pyridin-2-yl)amino)cyclopentyl)amino)pyridin-3-yl)-1,2-dihydro-3H-pyrrolo[3,4-c]pyridin-3-one] | 4000 | 34300 | 2.7 | 3.1 | 10300 | 0.25 | 10.5 |  | 
O=c1nc(O)c(F)cn1-c1ccc(N[C@H]2CC[C@H](Nc3nc4cc(C(F)(F)F)ccn4n3)C2)nc1 [Example 110] |  | 11300 | 3 | 2.6 | 2920 | 1 | 18.7 | 78.7 | 0.3
[2H]C1([2H])c2ncccc2C(=O)N1c1ccc(N[C@H]2CC[C@H](Nc3nc4cc(C(F)(F)F)ccn4n3)C2)nc1 [Example 114] | 14700 | 7230 | 3.1 | 3 | 2350 | 0.5 | 8.9 |  | 
N#Cc1cnc2c(c1)C(=O)N(c1ccc(N[C@H]3CC[C@H](Nc4nc5cc(OC(F)F)ccn5n4)C3)nc1)C2 [Example 123] | 5200 | 62200 | 2.4 | 4.3 | 9920 | 2 | 11.5 |  | 
N#Cc1ccc2c(n1)CN(c1ccc(N[C@H]3CC[C@H](Nc4nc5cc(OC(F)F)ccn5n4)C3)nc1)C2=O [Example 132] | 6500 | 30600 | 2.9 | 3 | 8570 | 0.5 | 10 |  | 
O=C1c2ccc(C(F)(F)F)nc2CN1c1ccc(N[C@H]2CC[C@H](Nc3nc4cc(OC(F)F)ccn4n3)C2)nc1 [Example 133] | 400 | 86800 | 5 | 5.8 | 11000 | 2 | 7.8 |  | 
O=C1c2ncc(F)cc2CN1c1cnc(N[C@H]2CC[C@H](Nc3nc4cc(C(F)(F)F)ccn4n3)C2)c(F)c1 [Example 145] | 2900 | 22600 | 3.3 | 3.1 | 6310 | 1 | 10.6 |  | 
O=C1c2ccc(C(F)(F)F)nc2CN1c1cnc(N[C@H]2CC[C@H](Nc3nc4cc(OC(F)F)ccn4n3)C2)c(F)c1 [Example 159] |  | 76800 | 9.8 | 10.7 | 7660 | 2 | 16.8 | 20.1 | 1.15
O=C1c2ncccc2CN1c1cnc(N[C@H]2CC[C@H](Nc3nc4cc(F)ccn4n3)C2)c(F)c1 [Example 164] |  |  |  |  |  |  | 7.2 | 15.6 | 1.48
